Measured values from publication PMC3019604 (ACS medicinal chemistry letters, 2010).

Test system: BJ, HEK293, HEP G2, and Raji cell lines
Experiment: Cytotoxicity
Type: cell-based, human
Details: four mammalian cell lines (BJ, HEK293, HEP G2, Raji)

Cc1cc(NC(=O)Nc2cccc(OC(F)(F)F)c2)c2ccccc2n1 [4{13, 34}]
mammalian cytotoxicity (in words): weak
